Test results: US6414029B1, “Vanadium complexes of monohydroxamates and pharmaceutical compositions comprising them” (priority 1997, dated 2002)
Entries after “also recorded” stand apart in the source; their conditions may differ. Read-outs that look alike come from different tables or passages of the source.

Key:
rat adipocytes = test: Lipogenesis bioassay ([U-14C]glucose incorporation into lipids) in rat adipocytes; assay type: cell-based; details: for Percent of maximal effect of insulin, Amino acid-HXM only (10 μM): free amino acid monohydroxamate 10 μM, lipogenesis; for Net Potentiating Effect (%): potentiation of lipogenic capacity of VOCl2 10 μM by equimolar HXM; for Potentiation of the insulinomimetic (lipogenic) efficacy of VOCl2, in words / Synergizing effect relative to that exerted by Glu(γ)HXM: vanadium (+4); for Potentiation of the insulinomimetic (lipogenic) efficacy of VOCl2, in words: equimolar HXM; for Synergizing effect relative to that exerted by Glu(γ)HXM: 1:1 molar ratio
Protocol: The fat pads of male Wistar rats were cut into small pieces with scissors and suspended in 3 ml of KRB buffer. […] Five ml of buffer was then added, and the cells were passed through a mesh screen. The cells were then allowed to stand for several minutes in a 15-ml plastic test tube at room temperature, floating, and the buffer underneath was removed. This procedure (suspension, floating, and removal of buffer underneath) was repeated three times.
In the lipogenic assay, for measurement of glucose uptake and its incorporation into lipids (lipogenesis), the adipocyte suspensions (3×10^5 cells/ml) were divided into plastic vials (0.5 ml per vial) and incubated for 60 min at 37° C. under an atmosphere of carbogen with 0.2 mM [U-^14C]glucose (4-7 mCi/mol), in either the absence or presence of insulin (100 ng/ml), and the complexes to be tested.

murine leukemia L5178Y [1] = details: in vivo; cited from earlier work
murine leukemia L5178Y [2] = details: in vitro; cited from earlier work
Friend leukemia cells = details: in vitro; cited from earlier work
[3] = test system: vanadium-enriched adipocytes; test: Lipogenesis in vanadium-enriched versus normal adipocytes; assay type: cell-based, rat; details: rats given NaVO3 12 mg/kg/day s.c. for five days (FIG. 8)
Protocol: Lipogenesis was performed as described above using free Glu(γ)HXM to compare freshly prepared rat adipocytes (3×10^5 cells/ml) from non-enriched vanadium rats to the enriched-vanadium rats.

STZ-rats = test: Blood glucose level in streptozocin(STZ)-treated rats; assay type: in vivo, rat
Protocol: (b) Streptozocin(STZ)-treated rats: Diabetes was induced by a single intravenous injection of a freshly prepared solution of streptozocin (55 mg/kg of body weight) in 0.1 M citrate buffer (pH 4.5).
Each group received daily i.p. injections of 0.05 mmol/kg (at 11.00 a.m.), of the corresponding compound.

leukemia L1210 = details: in vivo; cited from earlier work
melanoma B16 cells = details: in vivo; cited from earlier work
adipocytes = test: Hexose influx (2-deoxy-D-[6-3H]glucose) into adipocytes; assay type: cell-based, rat; details: for Hexose influx, in words: two different concentrations (FIG. 4)
Protocol: In order to test the specific effect of free Glu(γ)HXM and the Glu(γ)HXM:NaVO3 (2:1) complex on the entrance of glucose into cells, an in vitro assay was performed using 2-deoxy-D-[6-^3H]glucose (2-DG). 2-DG is a non-metabolized analog of glucose and this assay thus represents the influence of a compound on glucose influx to cells, independent of glucose metabolism.
Aliquots (70 μl) of the aforementioned samples were transferred into tubes that contained 2-deoxy-D-[6-^3H]glucose (0.1 mM final concentration). After 3 minutes, phloretin ([…]) was added in order to terminate the penetration of 2-DG into the cells. Samples of the suspended cells were then transferred to tubes with silicone oil where, upon centrifugation, the cells separate from the KRB medium and leftover 2-DG.

[4] = test system: isoproterenol mediated lipolysis; test: Inhibition of isoproterenol mediated lipolysis in vitro; assay type: cell-based
leukemia L1210 cells = details: in vitro; cited from earlier work
InsRTK = InsRTK (Rattus norvegicus, UniProt P15127); details: cited from earlier work
[5] = insulin 100 ng/ml, typical experiment

Chain of InsRTK (P15127 27-1383): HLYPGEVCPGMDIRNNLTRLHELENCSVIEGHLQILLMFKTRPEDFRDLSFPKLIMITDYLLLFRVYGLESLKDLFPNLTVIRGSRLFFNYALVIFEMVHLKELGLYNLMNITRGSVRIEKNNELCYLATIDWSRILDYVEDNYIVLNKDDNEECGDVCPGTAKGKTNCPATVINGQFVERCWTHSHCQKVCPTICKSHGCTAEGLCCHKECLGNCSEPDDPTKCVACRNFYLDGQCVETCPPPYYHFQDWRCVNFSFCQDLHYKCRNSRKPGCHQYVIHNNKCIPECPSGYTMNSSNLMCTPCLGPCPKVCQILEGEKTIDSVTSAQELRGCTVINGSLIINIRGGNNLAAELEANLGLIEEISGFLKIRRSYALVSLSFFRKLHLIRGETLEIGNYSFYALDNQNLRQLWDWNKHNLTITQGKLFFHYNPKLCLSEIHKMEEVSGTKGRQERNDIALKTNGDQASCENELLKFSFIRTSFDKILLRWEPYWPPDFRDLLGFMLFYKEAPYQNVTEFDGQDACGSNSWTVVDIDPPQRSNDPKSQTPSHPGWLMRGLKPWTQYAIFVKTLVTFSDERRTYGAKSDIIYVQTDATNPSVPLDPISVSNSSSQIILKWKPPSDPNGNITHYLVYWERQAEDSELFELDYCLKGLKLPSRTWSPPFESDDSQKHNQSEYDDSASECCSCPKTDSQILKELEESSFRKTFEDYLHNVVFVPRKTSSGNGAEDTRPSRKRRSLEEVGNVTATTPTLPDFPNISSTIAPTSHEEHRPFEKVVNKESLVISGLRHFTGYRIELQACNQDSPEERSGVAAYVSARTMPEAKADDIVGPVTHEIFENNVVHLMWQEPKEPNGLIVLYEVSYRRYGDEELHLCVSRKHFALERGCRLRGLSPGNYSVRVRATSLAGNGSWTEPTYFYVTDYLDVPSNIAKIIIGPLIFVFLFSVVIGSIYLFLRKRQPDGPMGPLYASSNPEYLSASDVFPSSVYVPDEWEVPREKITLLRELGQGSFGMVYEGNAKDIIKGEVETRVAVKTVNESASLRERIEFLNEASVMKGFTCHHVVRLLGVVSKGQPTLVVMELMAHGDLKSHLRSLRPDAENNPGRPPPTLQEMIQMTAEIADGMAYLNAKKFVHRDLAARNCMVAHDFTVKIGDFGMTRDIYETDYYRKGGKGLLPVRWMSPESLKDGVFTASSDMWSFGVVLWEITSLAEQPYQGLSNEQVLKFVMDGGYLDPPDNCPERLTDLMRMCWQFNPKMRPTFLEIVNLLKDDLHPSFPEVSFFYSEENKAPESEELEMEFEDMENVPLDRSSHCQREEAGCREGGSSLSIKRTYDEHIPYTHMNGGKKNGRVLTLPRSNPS

CC(C)(N)C(=O)NO [Aib-HXM, aminoisobutyric acid monohydroxamate]
Percent of maximal effect of insulin, Amino acid-HXM only (10 μM) (rat adipocytes): 0% (−3%) | Net Potentiating Effect (%) (rat adipocytes): 0%

N=C(N)NCCC[C@H](N)C(=O)NO [Arg-HXM, L-arginine hydroxamate]
Percent of maximal effect of insulin, Amino acid-HXM only (10 μM) (rat adipocytes): 4% | Net Potentiating Effect (%) (rat adipocytes): ˜2%

N[C@H](CC(=O)NO)C(=O)O [D-Asp(β)HXM, D-Aspartic acid β-hydroxamate]
Antitumoral activity, in words (murine leukemia L5178Y [1]): antitumoral activity | Antitumoral activity, in words (murine leukemia L5178Y [2]): antitumoral activity | Activity against Friend leukemia cells, in words (Friend leukemia cells): active

N[C@H](CCC(=O)NO)C(=O)O [D-Glu(γ)HXM, D-glutamic acid γ-monohydroxamate]
Synergistic action with vanadium, stereospecificity, in words (rat adipocytes): not facilitated | Percent of maximal effect of insulin, Amino acid-HXM only (10 μM) (rat adipocytes): 1% | Net Potentiating Effect (%) (rat adipocytes): 0% | Potentiation of the insulinomimetic (lipogenic) efficacy of VOCl2, in words (rat adipocytes): did not potentiate

N[C@@H](CCC(=O)NO)C(=O)O [Glu(γ)HXM, L-glutamic acid γ-monohydroxamate]
Potentiation of intracellular vanadium in enriched-vanadium rat cells versus normal adipocytes, in words [3]: to a much greater extent | Elevation of the efficacy of vanadate to lower blood glucose levels (STZ-rats; STZ-treated diabetic rats): 5-7 fold | Lipogenesis in the absence of exogeneously added vanadium, in words (rat adipocytes; 10-100 μM (FIG. 6)): activates lipogenesis; also recorded: produce insulin effects | Percent of maximal effect of insulin, Amino acid-HXM only (10 μM) (rat adipocytes): 22% | Activation together with a saturated concentration of insulin, in words (rat adipocytes; in vitro): additive to maximal effect | Net Potentiating Effect (%) (rat adipocytes): 51% | Potentiation of vanadium (+5) in activating glucose metabolism in rat adipocytes (rat adipocytes; vanadium (+5)): 7-10 fold | Cytotoxicity, in words (leukemia L1210): cytotoxic | Cytotoxicity, in words (melanoma B16 cells): cytotoxic | Glucose entry into cells, magnitude as % of maximal insulin response (adipocytes; 20 and 40 μM, 30 min preincubation (FIG. 4)): about 60% | Hexose influx, in words (adipocytes): stimulate hexose influx | Isoproterenol mediated lipolysis, in words [4]: inhibition of isoproterenol mediated lipolysis | Cytotoxicity, in words (leukemia L1210 cells): cytotoxic

N[C@@H](CC(=O)NO)C(=O)O [L-Asp(β)HXM, L-aspartic acid β-monohydroxamate]
Synergizing effect relative to that exerted by Glu(γ)HXM (rat adipocytes): ~85% | Percent of maximal effect of insulin, Amino acid-HXM only (10 μM) (rat adipocytes): 8% | Net Potentiating Effect (%) (rat adipocytes): 54%

NCCCC[C@H](N)C(=O)NO [Lys-HXM, L-lysine hydroxamate]
Percent of maximal effect of insulin, Amino acid-HXM only (10 μM) (rat adipocytes): 0% (−4%) | Net Potentiating Effect (%) (rat adipocytes): 0%

CC(=O)N[C@@H](CCC(=O)NO)C(=O)O [N-acetyl Glu(γ)HXM, N-acetyl-L-glutamic acid γ-monohydroxamate]
Percent of maximal effect of insulin, Amino acid-HXM only (10 μM) (rat adipocytes): 0% | Net Potentiating Effect (%) (rat adipocytes): 0% | Potentiation of the insulinomimetic (lipogenic) efficacy of VOCl2, in words (rat adipocytes): did not potentiate

O=C(NO)c1cccnc1 [Nic-HXM, nicotinic acid hydroxamate]
Synergizing effect relative to that exerted by Glu(γ)HXM (rat adipocytes): ~57% | Percent of maximal effect of insulin, Amino acid-HXM only (10 μM) (rat adipocytes): 11% | Net Potentiating Effect (%) (rat adipocytes): 29%

CN[C@@H]1C[C@H]2O[C@@](C)([C@@H]1OC)n1c3ccccc3c3c4c(c5c6ccccc6n2c5c31)C(=O)NC4 [Staurosporine]
Ki (InsRTK): ~1000 nM

N[C@@H](Cc1c[nH]c2ccccc12)C(=O)NO [Trp-HXM, L-tryptophan hydroxamate]
Percent of maximal effect of insulin, Amino acid-HXM only (10 μM) (rat adipocytes): 2% | Net Potentiating Effect (%) (rat adipocytes): ˜9%

Cl.Cl.[O]=[V] [VOCl2, vanadyl chloride]
Effect on blood glucose levels of STZ-rats, in words (STZ-rats; i.p. 0.02 mmol/kg/day, 12 days (FIG. 2)): no significant effect

L-histidine hydroxamate [His-HXM]
Percent of maximal effect of insulin, Amino acid-HXM only (10 μM) (rat adipocytes): 4% | Net Potentiating Effect (%) (rat adipocytes): ˜3%

insulin: Porcine insulin purchased from Eli Lilly Co.
Insulin-stimulated lipogenesis relative to basal (rat adipocytes; [5]): 4-5 fold | Vinsulin (rat adipocytes; [5]): 8,000-10,000 cpm per 3×10^5 cell/h

sodium metavanadate [NaVO3]
Hexose influx, in words (adipocytes): stimulate hexose influx
